Test results from patent US11945814B2, “Salt form” (CRT Pioneer Fund LP, priority 2018, dated 2024).

Columns and labels:
MPS1 kinase = target: T1, MPS1 kinase (Homo sapiens, UniProt P33981); settings: cited from earlier work
T1 sequence (P33981 1-857): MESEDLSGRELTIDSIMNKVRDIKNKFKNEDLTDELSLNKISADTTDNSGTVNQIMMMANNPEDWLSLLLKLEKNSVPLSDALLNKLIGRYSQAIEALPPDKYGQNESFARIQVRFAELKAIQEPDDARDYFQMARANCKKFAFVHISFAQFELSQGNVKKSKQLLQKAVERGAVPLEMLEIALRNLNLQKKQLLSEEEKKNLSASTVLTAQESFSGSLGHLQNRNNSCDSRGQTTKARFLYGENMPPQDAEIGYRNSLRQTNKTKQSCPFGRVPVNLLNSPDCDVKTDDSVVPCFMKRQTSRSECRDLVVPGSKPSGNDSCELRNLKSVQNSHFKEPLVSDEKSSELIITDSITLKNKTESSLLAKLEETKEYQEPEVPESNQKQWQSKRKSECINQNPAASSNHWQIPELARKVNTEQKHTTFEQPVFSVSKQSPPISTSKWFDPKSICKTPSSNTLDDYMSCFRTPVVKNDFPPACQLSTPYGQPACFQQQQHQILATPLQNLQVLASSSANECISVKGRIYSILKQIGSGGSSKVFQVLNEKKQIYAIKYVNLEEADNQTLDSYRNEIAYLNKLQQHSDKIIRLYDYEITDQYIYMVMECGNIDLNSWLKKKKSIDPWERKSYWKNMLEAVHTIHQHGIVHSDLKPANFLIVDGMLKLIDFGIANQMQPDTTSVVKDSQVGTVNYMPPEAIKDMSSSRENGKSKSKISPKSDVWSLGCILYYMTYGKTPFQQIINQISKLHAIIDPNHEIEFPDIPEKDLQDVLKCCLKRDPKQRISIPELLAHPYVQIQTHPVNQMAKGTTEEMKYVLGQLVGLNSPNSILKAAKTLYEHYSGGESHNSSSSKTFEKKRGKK

[1] = Stability assessment after storage at 40° C. and 75% RH for 3 weeks; assay type: physicochemical
Method: FIG. 3 compares the XRPD of the diphosphate salt (Form A) before (bottom) and after (top) storage at 40° C. and 75% RH.

[2] = Solubility of the diphosphate salt in a range of dissolution media; assay type: physicochemical; settings: thermodynamic from solid, 37° C., minimum of 21 hours
[3] = Dynamic vapour sorption (DVS) assessment; assay type: physicochemical
Method: The ability of samples studied to absorb moisture (or not) over a set of well-determined humidity ranges was assessed.
Sorption isotherms were obtained using a Hiden Isochema moisture sorption analyser (model IGAsorp), controlled by IGAsorp Systems Software V6.50.48. The sample was maintained at a constant temperature (25° C.) by the instrument controls. The humidity was controlled by mixing streams of dry and wet nitrogen, with a total flow of 250 ml·min^−1. The instrument was verified for relative humidity content by measuring three calibrated Rotronic salt solutions (10-50-88%). The weight change of the sample was monitored as a function of humidity by a microbalance (accuracy+/−0.005 mg). A defined amount of sample (typically 10-15 mg powder) was placed in a tared mesh stainless steel basket under ambient conditions. A full experimental cycle typically consisted of three scans (desorption, sorption, and desorption) at a constant temperature (25° C.) and 10% RH intervals over a 0-90% range (60 minutes for each humidity level).
Solids are then held post cycle at 0% RH for 2-3 hours and tested by XRPD and the remainder held at 90% RH for 2-3 hours and re-tested by XRPD.

[4] = Solubility of the diphosphate salt in a range of dissolution media; assay type: physicochemical
Method: The pH of the aqueous mixtures were also measured.

CCOc1cc(-c2nncn2C)ccc1Nc1ncc2cc(C)nc(NCC(C)(C)C)c2n1 [compound I, N2-(2-ethoxy-4-(4-methyl-4H-1,2,4-triazol-3-yl)phenyl)-6-methyl-N8-neopentylpyrido[3,4-d]pyrimidine-2,8-diamine]
MPS1 kinase inhibitory activity (MPS1 kinase): potent

CCOc1cc(-c2nncn2C)ccc1Nc1ncc2cc(C)nc(NCC(C)(C)C)c2n1 [N2-(2-ethoxy-4-(4-methyl-4H-1,2,4-triazol-3-yl)phenyl)-6-methyl-N8-neopentylpyrido[3,4-d]pyrimidine-2,8-diamine]
Chemical degradation after storage [1]: no evidence of chemical degradation | Hydration after storage [1]: no evidence | Form modification after storage (XRPD) ([1]; FIG. 3): No evidence of form modification | Change in appearance after storage ([1]; loose screw top vials): No change in appearance | solubility ([2]; aqueous buffer, Acetate buffer, pH 4.5): 0.02 mg/mL | solubility ([2]; aqueous buffer, Phosphate buffer, pH 6.7): 30 mg/mL | solubility ([2]; aqueous with cosolvent or surfactant or cyclodextrin, NaCl,0.9%/DMSO/Tween 20): 30.2 mg/mL | solubility ([2]; fassgf or other biorelevant, SFaGF, pH 1.6): 30.5 mg/mL | solubility ([2]; organic solvent or mixture, PEG300): 4.17 mg/mL | solubility ([2]; saline or isotonic, Sodium chloride 0.9% w/v): 30.5 mg/mL | solubility ([2]; FaSSIF, pH 6.5): 29.7 mg/mL | solubility ([2]; FeSSIF, pH 5): 10.9 mg/mL | solubility ([2]; Water, deionised): 30.2 mg/mL | DVS profile (reversibility, hysteresis) ([3]; 0-90% RH, 25° C., FIG. 4): reversible water uptake over the humidity range and no hysteresis | Water uptake/loss ([3]; DVS, 0 to 90% RH, 25° C.): 4.03% | Water uptake/loss as equivalents of water ([3]; DVS, 0 to 90% RH, 25° C.): about 1.5 equivalents of water | Flow of the solid post DVS ([3]; post DVS and exposure to 90% RH): free flowing | Form change post DVS (XRPD) ([3]; post DVS at 0% RH and at 90% RH, FIG. 5): no evidence of form change | pH of the aqueous mixture ([4]; Acetate buffer, pH 4.5): 4.25 | pH of the aqueous mixture ([4]; FaSSIF, pH 6.5): 2.07 | pH of the aqueous mixture ([4]; FeSSIF, pH 5): 2.36 | pH of the aqueous mixture ([4]; NaCl,0.9%/DMSO/Tween 20): 2.13 | pH of the aqueous mixture ([4]; Phosphate buffer, pH 6.7): 2.38 | pH of the aqueous mixture ([4]; SFaGF, pH 1.6): 1.72 | pH of the aqueous mixture ([4]; Sodium chloride 0.9% w/v): 1.88 | pH of the aqueous mixture ([4]; Water, deionised): 1.91
